# Assay results: PubChem BioAssay AID2252 (Southern Research Specialized Biocontainment Screening …, 2010)
# Values joined by “and” are separate entries in the source; they are usually repeats but may differ in a detail not shown here. Equal values may be shown once.
# Test system: THP-1 viability, CellTiter-Glo luminescence, 72 h
# Assay: PubChem AID 2252
row,SMILES,EC50
1,CN(C)CCCNc1c2ccccc2nc2ccccc12,3.46 µM
2,COc1ccc(CNCCc2c[nH]c3ccccc23)c(OC)c1C,8.57 µM
3,CCOc1ccc(-c2cc(C)[n+](CCN(CC)CC)c(-c3ccc(OCC)cc3)c2)cc1,4.37 µM
4,Brc1ccc2c(c1)CN1CCCC1=N2,28.6 µM
5,CCn1nccc1C(=O)Nc1cc(Cl)cc(Cl)c1,37 µM
6,c1cnc2c(c1)ccc1cccnc12,3.14 µM and 2.97 µM
7,O=C(NC(=C(Cl)Cl)S(=O)(=O)c1ccc(Cl)cc1)c1ccccc1,23.2 µM
8,CCCCOc1ccc(NC2=NC3(CCCCC3)N=C(N)N2)cc1,7.18 µM
9,O=C(N/N=C/c1ccc([N+](=O)[O-])s1)C(O)c1ccccc1 (stereo unspecified),12.9 µM
10,O=[N+]([O-])c1cccnc1S(=O)(=O)c1ccccc1,1.77 µM
11,CNCCCCOc1ccc(C(C)(C)C)cc1Cl,21.8 µM
12,Oc1cccc(Nc2nc(NCC3CCCO3)c3ccccc3n2)c1 (stereo unspecified),1.36 µM
13,CN(C)CCCNC(=O)c1ccc(-c2nc(-c3ccc(Cl)cc3)cs2)cc1,3.96 µM
14,O[C@@H](c1cc(C(F)(F)F)nc2c(C(F)(F)F)cccc12)[C@H]1CCCCN1,3.98 µM
15,O=Nc1ccc(O)c2ncccc12,2.07 µM
16,O=[N+]([O-])c1cccc2c(N3CCCC3)ccnc12,9.77 µM
17,N#CC1=C2N=C(N)c3ccccc3N2C2=C(C(=O)CCC2)C1c1cccc(Cl)c1 (stereo unspecified),27.1 µM
18,CN(C)CCNC(=O)/C(=C/c1ccc(-c2ccc(Cl)cc2)o1)NC(=O)c1ccccc1,11.3 µM
19,Cc1ccc(-c2csc(N=C(N)N)n2)c(C)c1,26.9 µM

row,SMILES,EC50
1,Nc1nonc1-n1nnc(C(=O)N/N=C/c2cc(Br)ccc2O)c1CSC1=NCCS1,1.29 µM
2,CC1CCCC(NC(=O)COC(=O)CCSc2ccccc2)C1C (stereo unspecified),< 0.1 µM
3,C=CCn1c(NS(=O)(=O)c2ccccc2)c(S(=O)(=O)c2ccc(C)cc2)c2nc3ccccc3nc21,40.9 µM
4,c1cc2c(cc1C1CCCCC1)c1c3n2CCCNC3CCC1 (stereo unspecified),5.18 µM
5,CN1CCN(/N=C/c2c3ccccc3c(Cl)c3ccccc23)CC1,13.1 µM
6,O=C(N/N=C/c1cc(Br)cc(Br)c1O)c1ccncc1,4.01 µM
7,O=C(Nc1ccc(Cl)cc1)N1CCCN(Cc2ccccc2F)C1,45.8 µM
8,Clc1ccc(OCCCNCc2ccccc2)c2ccccc12,23.4 µM
9,CCCOc1ccc(C(=O)NNC(=S)NC(=O)CC)cc1,2.81 µM
10,Nc1nonc1C(=O)N/N=C/c1cc(Br)ccc1O,4.18 µM
11,C#CCOCCOCCOCCNc1nc(N2CCN(C(=O)CCCCCCCCCCNC(=O)[C@H]([C@@H](C)CC)n3cc(CCCCN=C(N)N)nn3)CC2)nc(N2CCN(C(=O)CCCCCCCCCCNC(=O)[C@@H]([C@H](C)O)n3cc(C)nn3)CC2)n1,2.98 µM
12,Cc1ccc(Nc2cc(C)nn2-c2nc(C)cc(=O)[nH]2)cc1,0.65 µM
13,CN1/C(=C\C=C\C2=[N+](C)c3ccc4ccccc4c3C2(C)C)C(C)(C)c2ccccc21,0.2 µM
14,CCCCCCCCCCOC(=O)Cn1c(COc2ccc(OC)cc2)[n+](C)c2ccccc21,4.04 µM and 2.21 µM
15,Cc1cccc(NC(=O)C2CCCN2S(=O)(=O)c2ccc3c(c2)n(C)c(=O)c(=O)n3C)c1 (stereo unspecified),11 µM
16,CCCCCCCCCCOC(=O)Cn1c(COc2ccc(Cl)cc2)[n+](C)c2ccccc21,1.92 µM
17,Cc1ccc(-n2[nH]c(C)c(C=NCc3ccncc3)c2=O)cc1,31.6 µM
18,N#C/C(=C\c1ccc(O)c(O)c1)C(=O)c1ccc(O)c(O)c1,39.1 µM
19,NC1=NC[C@@H](Cc2ccc(O)cc2)N1CCc1cc(C(F)(F)F)cc(C(F)(F)F)c1,32.3 µM

row,SMILES,EC50
1,Cc1[nH]nc2c1C(c1ccc(-c3ccccc3C#N)o1)C(C#N)=C(N)O2 (stereo unspecified),30.6 µM
2,C#CCOCCOCCOCCNc1nc(N2CCN(C(=O)CCCCCCCCCCNC(=O)Cn3cc(CCCCCN)nn3)CC2)nc(N2CCN(C(=O)CCCCCCCCCCNC(=O)[C@H]([C@@H](C)CC)n3cc(CCCCN=C(N)N)nn3)CC2)n1,11 µM
3,c1cc2c(cc1Oc1nc(N3CCOCC3)nc(N3CCOCC3)n1)OCO2,< 0.1 µM
4,O=C(N/N=C/c1c(O)ccc2ccccc12)c1ccc(CO)nc1,1.41 µM
5,CC(=O)Nc1ccc(NC(=O)CSc2ccc(-c3ccco3)nn2)cc1,< 0.1 µM
6,O=C(N/N=C\c1ccc(Cl)s1)c1cccs1,32.7 µM
7,O=[N+]([O-])c1cc(F)c2cccnc2c1O,22.9 µM
8,Cc1nc2ccccc2c(N)c1C(=O)/C=C/c1ccccc1,3.11 µM
9,Cc1ccc2oc(=O)c(/C=C(\O)c3ccccc3)nc2c1,< 0.1 µM
10,CCCCCc1ccc(OCCCC[n+]2ccccc2)c(CCCCC)c1,1.48 µM
11,Cc1ccc(C)c(N/C(N)=N/c2nc(C)cc(C)n2)c1,27 µM
12,c1cncc(CSc2ccc(-c3cccs3)nn2)c1,35.2 µM
13,OCCCCNCc1ccc(OCc2ccc(Cl)cc2Cl)cc1,9.8 µM
14,CN1C(=O)/C(=C/c2cccc(Cl)c2)Sc2ccc(C(=O)N3CCCC3)cc21,21.1 µM
15,CN(C)c1ccc(O)c2c1CC1CC3C(N(C)C)C(=O)C(C(N)=O)=C(O)[C@@]3(O)C(=O)C1=C2O (stereo partly specified),33.7 µM
16,N=c1c2c(n(Cc3ccc(Cl)cc3Cl)c3c1CCC3)CCCC2,3.66 µM
17,O=C1C(SCCO)=C(SCCO)C(=O)c2ccccc21,3.62 µM
18,O=[N+]([O-])c1cc(Cl)c2cccnc2c1O,28.7 µM
